For this data set, the system named is Raji. As to the kind of experiment: Cytotoxicity against human Raji cells expressing human LAG3 assessed as reduction in cell viability incubated for 1 hrs by trypan blue staining based analysis. In kind it is toxicity.

The structures appear in SMILES notation.

In the case of `O=C(O)c1cccc(C(=O)NC2CCN(c3ccc(C(F)(F)F)cn3)CC2)c1`, the Activity result is listed as “Non-Toxic”.
Then `Cc1nc(C(F)(F)F)nc(-c2cc(NCCN(C)C)nc3[nH]ccc23)c1C`, with “Non-Toxic”.
